According to ChEMBL document CHEMBL6103616, “Isolation and Biosynthesis of Hyellamide, a Glycosylated N-Acyltyrosine Derivative, from the Cyanobacterium Hyella patelloides LEGE 07179” (J Nat Prod, 2025):
Activity calls are given as the source filed them. The rule behind the calls is not given here.

Test system: Bacillus subtilis
Experiment: Antibacterial activity against Bacillus subtilis […] assessed as growth inhibition by agar disk diffusion method
Format: functional, organism-based

CCCCCCCCCCCCCC(=O)N/C=C/c1ccc(O[C@@H]2OC[C@@H](O)[C@H](OC(C)=O)[C@H]2O)cc1
Activity: inactive
